In ChEMBL document CHEMBL1201862, “PubChem BioAssay data set” (2004):
Active and inactive are the calls of the source.

Key:
[1] = system: Streptococcus sp. 'group A'; assay: growth inhibition of control SK(-) GAS strain, dose response, counter-screen for streptokinase expression inhibitor project, luminescence, kanamycin, BacTiterGlo, confirmation (AID 1900); type: functional, organism-based
Exodeoxyribonuclease V = target: T1, Exodeoxyribonuclease V (Escherichia coli (strain K12), UniProt P04993+P07648+P08394); assay: E. coli RecBCD inhibitors, dose response, counter-screen for AddAB inhibitor project, absorbance, V66 E. coli, mutant T4 phage (AID 492957); type: functional, cell-based, Escherichia coli str. K-12 substr. MG1655
T1 sequence (P04993 whole entry): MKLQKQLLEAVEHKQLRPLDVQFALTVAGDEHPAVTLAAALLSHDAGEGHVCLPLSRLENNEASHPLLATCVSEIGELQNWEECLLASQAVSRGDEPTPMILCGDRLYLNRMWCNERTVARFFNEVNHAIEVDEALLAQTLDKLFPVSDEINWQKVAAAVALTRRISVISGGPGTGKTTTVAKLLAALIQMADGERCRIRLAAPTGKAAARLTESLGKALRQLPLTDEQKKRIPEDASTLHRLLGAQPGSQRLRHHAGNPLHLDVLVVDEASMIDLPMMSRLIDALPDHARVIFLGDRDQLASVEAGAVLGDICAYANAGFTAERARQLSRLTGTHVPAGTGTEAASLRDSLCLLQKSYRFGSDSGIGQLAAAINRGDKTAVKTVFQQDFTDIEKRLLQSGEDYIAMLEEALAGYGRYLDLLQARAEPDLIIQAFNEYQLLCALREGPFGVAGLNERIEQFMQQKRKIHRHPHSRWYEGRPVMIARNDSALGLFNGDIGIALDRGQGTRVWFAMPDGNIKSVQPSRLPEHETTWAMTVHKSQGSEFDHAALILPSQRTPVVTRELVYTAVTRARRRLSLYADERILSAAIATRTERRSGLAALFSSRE
T1 sequence (P07648 whole entry): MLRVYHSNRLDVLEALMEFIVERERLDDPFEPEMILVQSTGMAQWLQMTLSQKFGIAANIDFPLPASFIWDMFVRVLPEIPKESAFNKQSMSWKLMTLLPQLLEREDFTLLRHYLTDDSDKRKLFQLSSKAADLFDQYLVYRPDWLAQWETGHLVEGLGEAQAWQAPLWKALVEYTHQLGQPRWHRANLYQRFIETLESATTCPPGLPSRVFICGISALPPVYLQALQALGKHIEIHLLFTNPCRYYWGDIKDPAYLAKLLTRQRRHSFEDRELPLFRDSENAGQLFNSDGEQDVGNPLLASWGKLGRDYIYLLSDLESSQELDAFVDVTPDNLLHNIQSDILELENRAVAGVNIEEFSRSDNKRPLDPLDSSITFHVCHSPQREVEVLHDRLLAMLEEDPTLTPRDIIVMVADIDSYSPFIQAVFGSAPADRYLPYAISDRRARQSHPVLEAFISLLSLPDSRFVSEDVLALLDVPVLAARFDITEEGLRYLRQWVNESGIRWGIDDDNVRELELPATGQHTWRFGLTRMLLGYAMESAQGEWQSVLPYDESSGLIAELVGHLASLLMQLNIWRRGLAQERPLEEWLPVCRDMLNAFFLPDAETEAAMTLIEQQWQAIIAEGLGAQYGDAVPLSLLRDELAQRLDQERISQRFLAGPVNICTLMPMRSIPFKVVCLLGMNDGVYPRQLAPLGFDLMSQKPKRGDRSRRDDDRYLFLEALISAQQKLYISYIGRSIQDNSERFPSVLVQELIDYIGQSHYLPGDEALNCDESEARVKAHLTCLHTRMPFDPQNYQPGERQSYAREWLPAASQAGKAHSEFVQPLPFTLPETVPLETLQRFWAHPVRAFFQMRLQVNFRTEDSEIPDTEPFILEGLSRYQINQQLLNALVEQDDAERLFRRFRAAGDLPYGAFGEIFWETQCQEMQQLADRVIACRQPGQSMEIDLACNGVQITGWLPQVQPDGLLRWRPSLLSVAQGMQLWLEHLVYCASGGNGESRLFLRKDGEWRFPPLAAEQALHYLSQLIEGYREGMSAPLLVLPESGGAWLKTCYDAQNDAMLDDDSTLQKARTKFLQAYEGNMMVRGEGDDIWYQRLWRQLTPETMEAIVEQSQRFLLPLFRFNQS
T1 sequence (P08394 whole entry): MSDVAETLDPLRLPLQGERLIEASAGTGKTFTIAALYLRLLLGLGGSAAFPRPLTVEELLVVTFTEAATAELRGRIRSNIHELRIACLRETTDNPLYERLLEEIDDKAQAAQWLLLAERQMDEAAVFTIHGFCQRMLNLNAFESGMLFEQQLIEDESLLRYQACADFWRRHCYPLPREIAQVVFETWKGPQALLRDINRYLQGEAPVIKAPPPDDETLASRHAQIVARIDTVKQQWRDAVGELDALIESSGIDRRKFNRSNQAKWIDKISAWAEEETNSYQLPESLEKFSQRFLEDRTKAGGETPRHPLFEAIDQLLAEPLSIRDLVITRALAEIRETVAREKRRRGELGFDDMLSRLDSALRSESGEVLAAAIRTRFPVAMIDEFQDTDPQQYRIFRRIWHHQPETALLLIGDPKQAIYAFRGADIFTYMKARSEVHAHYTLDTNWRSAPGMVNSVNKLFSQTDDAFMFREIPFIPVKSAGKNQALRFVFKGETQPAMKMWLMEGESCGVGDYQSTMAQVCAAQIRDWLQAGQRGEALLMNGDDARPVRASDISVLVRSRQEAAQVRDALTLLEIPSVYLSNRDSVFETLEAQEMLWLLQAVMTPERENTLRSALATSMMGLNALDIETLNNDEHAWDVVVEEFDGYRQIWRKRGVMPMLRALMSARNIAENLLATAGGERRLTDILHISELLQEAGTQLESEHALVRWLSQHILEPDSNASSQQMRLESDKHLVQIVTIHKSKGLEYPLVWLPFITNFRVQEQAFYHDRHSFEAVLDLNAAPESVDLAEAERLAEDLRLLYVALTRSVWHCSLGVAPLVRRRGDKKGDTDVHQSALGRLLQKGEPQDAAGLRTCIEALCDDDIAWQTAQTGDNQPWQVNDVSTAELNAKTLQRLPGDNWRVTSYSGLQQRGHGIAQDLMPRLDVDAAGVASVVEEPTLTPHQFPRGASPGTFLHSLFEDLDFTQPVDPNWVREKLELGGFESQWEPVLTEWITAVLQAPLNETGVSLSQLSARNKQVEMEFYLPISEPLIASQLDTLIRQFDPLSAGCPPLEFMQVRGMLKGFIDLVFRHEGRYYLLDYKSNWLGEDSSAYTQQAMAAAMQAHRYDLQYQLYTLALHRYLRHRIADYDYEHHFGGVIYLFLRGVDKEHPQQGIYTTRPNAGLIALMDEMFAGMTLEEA

[2] = Counterscreen for AddAB inhibitors: absorbance-based bacterial cell-based high throughput dose response assay for inhibitors of bacterial viability. [Related pubchem assays (depositor defined):AID435030, AID449728, AID449731, AID488942, AID488955, AID488956]; type: functional

| SMILES | EC50 [1] | IC50 (Exodeoxyribonuclease V) | IC50 [2] |
| --- | --- | --- | --- |
| COc1ccc(CNC(=O)c2c(C)oc3c2C(=O)c2ccccc2C3=O)cc1 | 0.737 µM (active) |  |  |
| CCSc1nsc(NC(=O)Nc2cccc(F)c2)n1 | 9.91 µM (active) | > 119 µM (inactive) | > 119 µM (inactive) |
| O=[N+]([O-])c1ccc(/C=N/n2cnc3ccccc32)s1 |  | > 119 µM (inactive) | 91.4 µM (inactive) |
